# Data taken from patent publication US20200207726A1, “INDOLINYL SULFONAMIDE AND RELATED COMPOUNDS FOR USE AS AGONISTS OF RORY AND THE TREATMENT OF DISEASE” (Lycera Corporation, priority 2017, published 2020).
# Key:
# [1] = molecular target: T1, Gal4-RORγ-LBD (Homo sapiens, UniProt P51449); assay: Gal4-RORγ Luciferase Reporter Assay in HEK-293T Cells; format: cell-based; settings: for EC50: HEK-293 cells, with 2 μM ursolic acid, overnight incubation; for Gal4-RORγ Assay Max Response: upper plateau of 4-parameter fit, luciferase signal in absence of ursolic acid or test compound defined at 100
# T1 construct: expressed in transfected cells; host or cells: HEK-293 cells, pcDNA3.1neo plasmid
# T1 sequence (P51449 269-508 limits assumed): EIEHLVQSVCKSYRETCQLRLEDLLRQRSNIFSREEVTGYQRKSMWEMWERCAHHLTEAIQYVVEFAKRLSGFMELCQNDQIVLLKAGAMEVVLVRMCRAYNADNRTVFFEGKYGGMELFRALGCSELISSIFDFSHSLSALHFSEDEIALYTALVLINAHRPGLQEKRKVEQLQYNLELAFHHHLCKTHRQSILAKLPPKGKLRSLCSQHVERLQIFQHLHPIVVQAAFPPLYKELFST
# Method: In the following protocol, HEK-293 cells were transfected with a construct comprising the Gal4 DNA binding domain fused to the ligand binding domain of RORγ (Gal4-RORγ-LBD) in a pcDNA3.1neo plasmid, and also with a reporter construct comprising pGL4.31 Gal4-luciferase (Promega). Control cells were prepared similarly using empty pcDNA3.1neo and pGL4.31 vectors.
# Trans-IT reagent (Mirus, 60 μL) at room temperature was added drop wise to OptiMEM (Invitrogen, 1.5 ml). This reagent mixture was mixed by inversion then incubated for 5 to 30 minutes at room temperature. It then was added to a solution of both expression vectors (5 μg each), mixed, and incubated at room temperature for about 20 minutes. HEK-293 cells were harvested from incubation flasks by removing the media, treating with TrypLE Express (Invitrogen), and incubating until the cells detached from the bottom of the flask (approximately 2-5 minutes). 10 Million cells were collected by centrifugation and re-suspended in 10 mL of Dulbecco's Modified Eagle Medium, High Glucose (DMEM, Invitrogen) containing 10% Fetal Bovine Serum and 100 IU each of penicillin and streptomycin. The re-suspended cells and the transfection mixture were added to a T75 flask, mixed and incubated overnight at 37° C. and 5% CO2.
# The cells were harvested as described above, counted, and centrifuged to obtain the desired number of cells, then re-suspended in complete growth media at 0.75×10^6 cells/mL. The RORγ antagonist, ursolic acid, was added to the cells at a final concentration of 2 μM. Cells were plated at 20 μL of cell suspension/well (10,000-15,000 cells/well) in white tissue culture treated 384 well plates. Test compounds were dissolved at 10 mM in DMSO then diluted into complete growth medium to 5× the final intended test concentration. These drug stock solutions, 5 μL/well were added to the tissue culture plate. The final DMSO concentration was 0.2%. The plates were briefly centrifuged then incubated overnight at 37° C. and 5% CO2. To conduct the assay, the tissue culture plates were allowed to equilibrate to room temperature and One-Glo luciferase reagent (Promega, 25 μL/well) was added. The plates were briefly centrifuged then incubated at room temperature for 10 minutes. The luciferase intensity was read on an Envision plate reader (Perkin Elmer). RORγ activity was determined relative to controls and plotted as a function of test compound concentration using PRISM (GraphPad) to determine a 50% effective concentration (EC50). The luciferase signal in the absence of ursolic acid or test compound is defined at 100. The Max Response is the upper plateau in the signal as determined by line-fit using a 4-parameter logistic model in PRISM (GraphPad).
# [2] = molecular target: T2, RORγ-LBD (Homo sapiens, UniProt P51449); assay: RORγ-Ligand Binding Domain (LBD) TR-FRET Assay; format: biochemical; settings: for TR-FRET Assay Max Response: upper plateau of 4-parameter fit, signal in absence of ursolic acid or test compound set as 100; for EC50: with 2 μM ursolic acid (RORγ antagonist), highest test concentration 10 μM
# T2 construct: made in house; host or cells: SF9 cells, baculovirus expression system (lysate used)
# T2 sequence (P51449 269-508 limits assumed): T1 sequence (P51449 269-508 limits assumed)
# Method: HIS-tagged RORγ-LBD protein was expressed in SF9 cells using a baculovirus expression system. The lysate was diluted in assay buffer (50 mM Tris pH 7.0, 50 mM KCl, 1 mM EDTA, 0.1 mM DTT, 0.01% BSA) to obtain RORγ-LBD final concentration of −3 nM in a 384-well assay plate (need to titrate for each batch of protein).
# A stock of biotinylated-LXXLL peptide from coactivator SRC1 (Biotin-[…]) was prepared in assay buffer and added to each well (200 nM final concentration). A solution of Europium tagged anti-HIS antibody (0.6 nM final concentration) and APC-conjugated streptavidin (30 nM final concentration) were also added to each well. RORγ antagonist ursolic acid was also included at a final concentration of 2 μM. Compounds were diluted in DMSO and further diluted in assay buffer with a final DMSO concentration at 1%. The highest concentration of test compound analyzed was 10 μM.
# The final assay mixture was incubated overnight at 4° C. or 2 hours at room temperature, and the fluorescence signal was measured on an Envision plate reader: (Excitation filter=340 nm; APC emission=665 nm; Europium emission=615 nm; dichroic mirror=D400/D630; delay time=100 μs, integration time=200 μs). 50% Effective concentration (EC50) values for test compounds were calculated from the quotient of the fluorescence signal at 665 nm divided by the fluorescence signal at 615 nm. The quotient of the fluorescence signals in the absence of ursolic acid or test compound is set as 100. Max Response is defined as the upper plateau in the signal as determined by line-fit using a 4-parameter logistic model in PRISM (GraphPad).
EC50 [1] [nM],EC50 [2] [nM],Structure (SMILES),Gal4-RORγ Assay Max Response [1],TR-FRET Assay Max Response [2]
> 10000,–,"O=S(=O)(c1cccc(C(F)(F)F)c1)c1c[nH]c2ccc(-c3cc(F)ccc3F)cc12 [Example 4, 5-(2,5-difluorophenyl)-3-((3-(trifluoromethyl)phenyl)sulfonyl)-1H-indole]",* (a value in the range of 25 to 90),–
500 to 5000,500 to 5000,"O=C(O)CCc1cc2ccc(-c3cc(F)ccc3F)cc2n1S(=O)(=O)c1cccc(C(F)(F)F)c1 [Example 8, 3-(6-(2,5-difluorophenyl)-1-((3-(trifluoromethyl)phenyl)sulfonyl)-1H-indol-2-yl)propanoic acid]",** (a value in the range of greater than 90 to 150),*** (a value in the range of greater than 150 to 200)
500 to 5000,< 500,"O=C(O)CCC1Cc2ccc(-c3cc(F)ccc3F)cc2N1S(=O)(=O)c1cccc(C(F)(F)F)c1 (stereo not drawn) [Example 6, 3-(6-(2,5-difluorophenyl)-1-((3-(trifluoromethyl)phenyl)sulfonyl)indolin-2-yl)propanoic acid]",*** (a value in the range of greater than 150 to 200),*** (a value in the range of greater than 150 to 200)
< 500,< 500,"CCOC(=O)CC1CN(S(=O)(=O)c2cccc(C(F)(F)F)c2)c2cc(-c3cc(F)ccc3F)ccc21 (stereo not drawn) [Example 2, ethyl 2-(6-(2,5-difluorophenyl)-1-((3-(trifluoromethyl)phenyl)sulfonyl)indolin-3-yl)acetate]",** (a value in the range of greater than 90 to 150),*** (a value in the range of greater than 150 to 200)
< 500,< 500,"COC(=O)CCC1Cc2ccc(-c3cc(F)ccc3F)cc2N1S(=O)(=O)c1cccc(C(F)(F)F)c1 (stereo not drawn) [Example 5, methyl 3-(6-(2,5-difluorophenyl)-1-((3-(trifluoromethyl)phenyl)sulfonyl)indolin-2-yl)propanoate]",** (a value in the range of greater than 90 to 150),*** (a value in the range of greater than 150 to 200)
< 500,< 500,"O=S(=O)(c1cccc(C(F)(F)F)c1)N1COc2ccc(-c3cc(F)ccc3F)cc21 [Example 1, 5-(2,5-difluorophenyl)-3-((3-(trifluoromethyl)phenyl)sulfonyl)-2,3-dihydrobenzo[d]oxazole]",** (a value in the range of greater than 90 to 150),*** (a value in the range of greater than 150 to 200)
500 to 5000,500 to 5000,"COC(=O)CCc1cc2ccc(-c3cc(F)ccc3F)cc2n1S(=O)(=O)c1cccc(C(F)(F)F)c1 [Example 7, methyl 3-(6-(2,5-difluorophenyl)-1-((3-(trifluoromethyl)phenyl)sulfonyl)-1H-indol-2-yl)propanoate]",* (a value in the range of 25 to 90),*** (a value in the range of greater than 150 to 200)
5000 to 10000,< 500,"O=C(O)CC1CN(S(=O)(=O)c2cccc(C(F)(F)F)c2)c2cc(-c3cc(F)ccc3F)ccc21 (stereo not drawn) [Example 3, 2-(6-(2,5-difluorophenyl)-1-((3-(trifluoromethyl)phenyl)sulfonyl)indolin-3-yl)acetic acid]",** (a value in the range of greater than 90 to 150),** (a value in the range of greater than 90 to 150)
